Test: Human HepG2 cell viability assay in 384 well format
Assay type: toxicity, cell-based
Set-up: dose 125 nL, time 70.5 hour; cytotoxicity at 70.5 h: concentration not given beside the values
Conditions: HepG2 cells, read-out: Inhibition

`c1csc(-c2nc(CNC3CCc4ncnn4C3)cs2)c1` (stereo not drawn) gave a cytotoxicity at 70.5 h of -16.5%.

With `Cc1cn[nH]c1C1COCCN1Cc1ccsc1` (stereo not drawn) the cytotoxicity at 70.5 h was -0.803%.

Work on `CC(C)OCCCNC(=O)CN1CCN(c2nccs2)C(C)C1` (stereo not drawn) yielded a cytotoxicity at 70.5 h of 35.5%.

Compound `COCC(=O)Nc1ccnn1-c1ccc(Cl)cc1` has a cytotoxicity at 70.5 h of 3.64%.

`COc1ccc(C[C@H]2CN(C(=O)CS(C)(=O)=O)CC[C@H]2OC)cc1` showed a cytotoxicity at 70.5 h of -4.64%.

Compound `CC(=O)N(Cc1ncc(C)o1)C1CCN(Cc2cccc(C#N)c2)C1` (stereo not drawn) has a cytotoxicity at 70.5 h of -5.2%.

With `Cc1ccc(C)c(N2CCN(CC3(O)CCNC3)CC2)c1` (stereo not drawn) the cytotoxicity at 70.5 h was -0.198%.

In the case of `CC(C)CN1CCc2[nH]cnc2C12CCN(C(=O)c1cncn1C)CC2`, the cytotoxicity at 70.5 h is reported as -5.88%.

In the case of `Cc1ccnn1CCC(=O)N1CCN(C2CCc3ccccc3C2)CC1` (stereo not drawn), the cytotoxicity at 70.5 h is reported as -12.6%.

With `COc1ccc(C)cc1-c1csc(Cn2ccc(=O)[nH]c2=O)n1` the cytotoxicity at 70.5 h was 2.92%.

`CC(=O)N1CCC2(CC1)c1ncc(-c3ccc(F)cc3)n1CCN2C` gave a cytotoxicity at 70.5 h of -3.18%.

For `Cc1cc(NC(=O)c2ccc(F)cc2Br)n(C)n1`, the cytotoxicity at 70.5 h was -4.35%.

Work on `CCNc1cc2c(nn1)CCN(C(=O)c1nccnc1N)C2` yielded a cytotoxicity at 70.5 h of -2.38%.

For `CCC(=O)N1CCC(NC2CCCC2)C1` (stereo not drawn), the cytotoxicity at 70.5 h was -7.41%.

For `CC(c1cccc(-c2ccc(C(=O)O)cc2Cl)c1)N(C)C` (stereo not drawn), the cytotoxicity at 70.5 h was -1.21%.

Work on `Cn1ncc(C(=O)N2CCOCC2)c1Cl` yielded a cytotoxicity at 70.5 h of -13.1%.

`O=C([C@@H]1C[C@@H]2CCN(C3CCOCC3)C[C@@H]2O1)N1CCCC1` gave a cytotoxicity at 70.5 h of -5.63%.

For `CC1(C(=O)N2CCOCC2)CN(Cc2ncc[nH]2)CCO1` (stereo not drawn), the cytotoxicity at 70.5 h was 11.7%.

Work on `CN1CC(c2cc(O)nc(NCc3ccccc3Cl)n2)CC1=O` (stereo not drawn) yielded a cytotoxicity at 70.5 h of -2.82%.

For `COc1ccccc1CNC(=O)CN(C)C(C)c1nccs1` (stereo not drawn), the cytotoxicity at 70.5 h was -1.57%.

`CCn1nc(C)c(C(C)NC(=O)c2cccc(NCC(=O)O)c2)c1C` (stereo not drawn) gave a cytotoxicity at 70.5 h of -9.45%.

Compound `CN(CC(C)(C)C)S(=O)(=O)c1ccc(C(F)(F)F)nc1` has a cytotoxicity at 70.5 h of -25.1%.

Work on `O=C(Nc1cc(-c2ccncc2)no1)C1CCC1` yielded a cytotoxicity at 70.5 h of -10.3%.

Work on `O=C(NS(=O)(=O)c1cnn(-c2ccccc2F)c1)c1ccoc1` yielded a cytotoxicity at 70.5 h of 9.38%.

`CN(C)c1ncnc2c1CCN(C(=O)c1sccc1S(N)(=O)=O)C2` showed a cytotoxicity at 70.5 h of -2.96%.

Compound `NCC(c1cccnc1)N1CCOCC1` (stereo not drawn) has a cytotoxicity at 70.5 h of -4.26%.

`CC(=O)N1CC[C@@H]2CN(Cc3ccncc3)S(=O)(=O)[C@@H]2CC1` showed a cytotoxicity at 70.5 h of 0.262%.

With `Cn1ccc(CN2CCC(Cc3ccccc3)CC2)cc1=O` the cytotoxicity at 70.5 h was 0.151%.

`COc1cccc(C2=CCN(CCN3CCCC3=O)CC2)c1` showed a cytotoxicity at 70.5 h of -7.88%.

For `CCC(=O)N1CCN(CCn2cccn2)c2ncccc2C1`, the cytotoxicity at 70.5 h was 12.9%.

`O=C([C@@H]1CCO[C@@H]2CCN(CCc3ccccc3)C[C@@H]21)N1CCCC1` gave a cytotoxicity at 70.5 h of 15.3%.

In the case of `CC(C)[C@H]1COC(=O)N1Cc1nccn1C(C)C`, the cytotoxicity at 70.5 h is reported as -4.48%.

`CSCC(CCO)NC(=O)c1cccc(Cl)c1F` (stereo not drawn) showed a cytotoxicity at 70.5 h of -16.7%.

`CCc1nccn1C1CCCN(C(=O)c2ccc(C(=O)NC)nc2)C1` (stereo not drawn) showed a cytotoxicity at 70.5 h of -5.35%.

`CC(C)(C)CN1CCCC2(CCN(C(=O)c3cn[nH]c3)C2)C1` (stereo not drawn) showed a cytotoxicity at 70.5 h of -9.2%.

For `CN(Cc1nncn1C)c1nccc(C2CCCC2)n1`, the cytotoxicity at 70.5 h was 6.4%.

In the case of `COc1cc(-c2cnnc(NCC3CC3)n2)cc(OC)c1OC`, the cytotoxicity at 70.5 h is reported as 5.52%.

With `CCOCC(O)CN1CCN(C(=O)C(C)(C)CC)CC1` (stereo not drawn) the cytotoxicity at 70.5 h was 18.6%.

Work on `COc1ccc(C(=O)N(c2ccc(OC)c(F)c2)C(C)C)cn1` yielded a cytotoxicity at 70.5 h of -2.91%.

`CCN1CC2(CC1=O)CN(C(=O)C(C)C)CCN(S(C)(=O)=O)C2` (stereo not drawn) showed a cytotoxicity at 70.5 h of 19.5%.

`CNCc1n[nH]c(=O)n1-c1cccc(Cl)c1Cl` gave a cytotoxicity at 70.5 h of -8.26%.

Compound `Cc1ccc(-c2nc(CNC3CCc4ncnn4C3)co2)c(C)c1` (stereo not drawn) has a cytotoxicity at 70.5 h of 1.75%.

Work on `CC(C)c1nccn1C1CCCN(C(=O)c2cc(C(N)=O)cs2)C1` (stereo not drawn) yielded a cytotoxicity at 70.5 h of 2.06%.

Compound `NC(=O)c1cccc(CN2CCOC(Cn3cccn3)C2)c1` (stereo not drawn) has a cytotoxicity at 70.5 h of 8.52%.

For `N#Cc1cccnc1OC1CCN(S(=O)(=O)c2c(F)cccc2F)CC1`, the cytotoxicity at 70.5 h was 39.9%.

Work on `CN(Cc1csc(-c2cccs2)n1)C(=O)CCn1ccc(=O)[nH]c1=O` yielded a cytotoxicity at 70.5 h of 10.9%.

`CC(C)c1nc(CS(=O)(=O)Cc2noc(C3CC3)n2)cs1` gave a cytotoxicity at 70.5 h of -13.6%.

For `CC(C)n1[nH]c(=O)c2c1NC(=O)CC2c1cccc(OC(F)F)c1` (stereo not drawn), the cytotoxicity at 70.5 h was 6.29%.

For `O=C(Cc1cccc(F)c1)NCCNCc1ccc2c(c1)CCO2`, the cytotoxicity at 70.5 h was 6.87%.

In the case of `CCN1C(=O)CCCC12CCCN(C(=O)c1cnccn1)C2` (stereo not drawn), the cytotoxicity at 70.5 h is reported as -5.91%.

`COCC(=O)NC[C@H]1C[C@@H]2CCN1C[C@@H]2CN1CCc2ccccc2C1` gave a cytotoxicity at 70.5 h of -12.4%.

`COc1ccc(CNCc2cn(C)nc2C)cc1` showed a cytotoxicity at 70.5 h of -2.32%.

`CCNC(=O)CCC(=O)NCC1(O)CCC(C(C)(C)C)CC1` (stereo not drawn) showed a cytotoxicity at 70.5 h of -2.55%.

In the case of `Cn1cc(C(NCCc2ccccn2)c2cccc(F)c2)cn1` (stereo not drawn), the cytotoxicity at 70.5 h is reported as -5.84%.

With `COCc1nc(CNC2CCSCC2)no1` the cytotoxicity at 70.5 h was -8.13%.

`COc1ncccc1CN1C[C@@H]2COC[C@]2(COc2cccnc2)C1` gave a cytotoxicity at 70.5 h of -13.7%.

Work on `CC(NC(=O)NCCOc1ccc(F)c(F)c1)c1nncn1C` (stereo not drawn) yielded a cytotoxicity at 70.5 h of -0.895%.

With `CCN1CCOC(CNCc2c(Cl)nc3ccccn23)C1` (stereo not drawn) the cytotoxicity at 70.5 h was -21.6%.

Reference: ChEMBL document CHEMBL3507680, “University of Dundee, Gates Library screen for HepG2 cell viability”
